Data as given in PubChem BioAssay AID504738 (National Center for Advancing Translational Sciences (NCATS), 2011).

System: kinetic aqueous solubility, PBS pH 7.4, LC-UV/MS
Assay: Inhibitors of Bloom's syndrome helicase: Aqueous Profiling Assay
Text: Survival of cells and the faithful propagation of the genome depend on elaborate mechanisms of detecting and repairing DNA damage. Treatment of advanced cancer relies on radiation therapy or chemotherapy, which kill cancer cells by causing extensive DNA damage. It is often found, that cancer cells develop resistance to therapy through enhanced activity of DNA repair functions; this has led to an increased interest in developing drugs that interfere with DNA repair, which could sensitize cancer cells to conventional therapy. Bloom syndrome helicase (BLM), is important in resolving abnormal DNA structures formed during replication or homologous recombination. Shutting down the expression of BLM leads to chromosomal instability and higher radiation sensitivity in cultured cells. This bioassay provides profiling data on aqueous kinetic solubility (PBS @ pH 7.4) of one of the lead compounds developed in the APE1 inhibitors project. NIH Chemical Genomics Center [NCGC] NIH Molecular Libraries Probe Production Centers Network [MLPCN] MLSCN Grant: MH087284 PI Name: Dr. Opher Gileadi, Structural Genomics Consortium, University of Oxford, UK
1. 8ul of reference and test compound stock solution were added to 392ul 100mM phosphate buffer (pH 7.4) 2. Sample tubes were shaken for 1 hr (1000 rpm) at room temperature 3. […] Concentration of the supernatant was determined by LC-UV or LC-MS/MS

- solubility: 2 µM
SMILES: O=C(Nc1ccc(F)c(C(F)(F)F)c1)Nc1nnc(-c2ccncc2)s1
